Source: US9233946B2, “Sulfonamide compounds” (KANCERA AB, priority 2010, dated 2016)

Assays:
PFKFB4 = PFKFB4 (Homo sapiens (Human), UniProt Q16877); assay: PFKFB4 kinase activity, Method B (ADP-Glo Kinase Assay); format: biochemical
Description: (§1) The PFKFB3 (placenta form) and PFKFB4 were produced and purified to homogeneity from E. coli at Biovitrum and at Sprint Bioscience. All other reagents were purchased from commercial sources. Two independent methods have been used for determination of the kinase activity of PFKFB3 (Method A and Method B). Method B has been used for determination of the kinase activity of PFKFB4.
Method B: The kinase activity of the bi-functional enzyme is readily quantified based on the production of ADP and F-2,6-P2 from ATP and F6P. The ADP is detected with a kit, ADP-Glo™ Kinase Assay^(a-e), from Promega. The assay is a luminescent ADP detection assay that measures kinase activity by quantifying the amount of ADP produced during the kinase reaction. The assay is performed in two steps; first, after the kinase reaction, an equal volume of ADP-Glo™ Reagent is added to terminate the kinase reaction and deplete the remaining ATP. Second, the Kinase Detection Reagent is added to simultaneously convert ADP to ATP and allow the newly synthesized ATP to be measured using a luciferase/luciferine reaction. The light generated is measured using a luminescence counter (1450 MicroBeta TriLux).
The assay was performed in white 384-well microtiter plates (OptiPlate, 6007299, PerkinElmer) by consecutive additions of 0.1 μL of a test compound solution (serial diluted in DMSO from compound DMSO stock solution and dispensed by acoustic dispensing from UV-star 384-well plate 7360153, VWR), 5 μL of enzyme solution and 5 μL of a substrate (fructose-6-phosphate (F6P) and adenosine-5′-triphosphate (ATP)) containing solution. […] Four reference dose response curves, one of them being the QC compound, were included in row O1-2, P1-2, and serial diluted as the test compounds. The final concentrations of all reagents in a total assay volume of 10.1 μL per well were: • 50 mM Tris-HCl at pH 8.0 • 10 mM MgCl2 • 5 mM Na2HPO4 at pH 8.0 • 81.48 nM PFKFB3 or 145 nM PFKFB4 • 8 μM ATP • 100 μM F6P (acid treated and then neutralized to remove any contaminating F-2,6-P2; see Van Schaftingen, 1984) • 0.005% Tween-20 • 1 mM dithiothreitol (DTT) • A test compound at various concentrations or controls (final DMSO concentration 0.99%)
Enzyme, compounds and controls were pre-incubated at room temperature for 15 min before the addition of substrate solution. The enzymatic reaction was allowed to proceed for 20 min (PFKFB3) or 40 min (PFKFB4) at room temperature. The reaction was terminated by the addition of 10 μL of ADP-Glo™ Reagent to all wells and the plate was incubated for 40 min at room temperature. After addition of 20 μL Kinase Detection Reagent to all wells the plate was incubated for 30 min at room temperature, followed by measurement in 1450 MicroBeta TriLux. All plates were centrifuged after each addition (room temperature, short spin, 500 RPM, Megafuge 1.0 Heraeus Instruments).
The inhibitory potency or IC50 values of test compounds on the kinase activity of PFKFB3 or PFKFB4 were calculated using a four-parameter model (model 205) in XLfit (IDBS ActivityBase XE Runner).

PFKFB3 = PFKFB3 (Homo sapiens (Human), UniProt Q16875); assay: PFKFB3 kinase activity, Method A (F-2,6-P2 production, coupled PPi-PFK/NADH assay); format: biochemical
Description: as §1
Method A: The kinase activity of the bi-functional enzyme is readily quantified based on the production of F-2,6-P2 as described by Van Schaftingen et al. (1982) Eur. J. Biochem. 129, 191-5. This sensitive assay is based on the potent activation of pyrophosphate dependent phosphofructokinase-1 (PPi-PFK) from potato tubers by F-2,6-P2. The use of a series of coupled enzymes leads to a consumption of NADH (nicotinamide adenine dinucleotide) that can be followed spectrophotometrically (an updated protocol is available in Van Schaftingen, (1984) Methods of Enzymatic Analysis (Bergmeyer, H. U., ed.), 3rd edn., vol. 6, pp. 335-341, Verlag Chemie, Weinheim). A protocol for measurements in 96-well microtiter plate format is also available (Bruni et al., (1989) Anal. Biochem. 178, 324-6). These assay protocols have been adopted for the measurement of the kinase activity of PFKFB3 with some modifications as described in the protocol below.
The assay was run in 96-well microtiter plates (Costar 3365 round bottom polypropylene) by consecutive additions of 30 μl each of a test compound solution (diluted from a DMSO stock solution), a PFKFB3 solution and a substrate (fructose-6-phosphate (F6P) and adenosine-5′-triphosphate (ATP)) containing solution. […] The final concentrations of all reagents in a total assay volume of 90 μl per well were: • 50 mM Tris-acetate at pH 8.0 • 0.1 mM EDTA (ethylene diamine tetraacetic acid) • 10 mM MgCl2 • 5 mM Na2HPO4 (buffered by the Tris-acetate to a final pH of 8.0) • 5 nM PFKFB3 • 4 μM ATP • 100 μM F6P (acid treated and then neutralized to remove any contaminating F-2,6-P2; see Van Schaftingen, 1984) • 1 mM dithiothreitol (DTT) • 0.005% Tween-20
A test compound at various concentrations (which also added 0.83% DMSO to the final solution)
The enzymatic reaction was allowed to proceed for 10 minutes at room temperature while on a plate shaker at medium speed (750 RPM). The reaction was then terminated by the addition of 90 μl of a 0.4 M NaOH solution to all wells. The plate was then placed on the plateshaker at the same speed for two minutes to allow sufficient mixing. All samples were then diluted by a factor of 10 by transferring 20 μl from each well to the corresponding well of a new plate with 180 μl distilled water predispensed to all wells.
The next step in the protocol was quantification of the levels of F-2,6-P2 in each well of the microtiter plate. This was done by transferring 20 μl of the content in each well to the corresponding position in a new plate (Nunc 269620 transparent 96-well plate). […] To ensure that all measured values were within the linear range of the response (measured to be between 0-1 nM of F-2,6-P2 as also described by Van Schaftingen) the same volume of a 2.5 nM and a 5.0 nM standard sample were also added to column 12 (as all samples were diluted five-fold in the assay procedure this corresponds to 0.5 and 1.0 nM samples). The procedure then involved consecutive additions of three solutions with the following premixed components: • Assay-mix (20 μl): Tris-acetate at pH 8.0, NADH and Mg(OAc)2 • PPi/F6P-mix (40 μl): Pyrophosphate and F6P • Enzyme-mix (20 μl): Tris-acetate at pH 8.0, aldolase, triose phosphate isomerase, glycerol-3-phosphate dehydrogenase, pyrophosphate-dependent phosphofructokinase from potato tubers and bovine serum albumin (BSA) […]

PFKFB4, sequence (Q16877 whole entry): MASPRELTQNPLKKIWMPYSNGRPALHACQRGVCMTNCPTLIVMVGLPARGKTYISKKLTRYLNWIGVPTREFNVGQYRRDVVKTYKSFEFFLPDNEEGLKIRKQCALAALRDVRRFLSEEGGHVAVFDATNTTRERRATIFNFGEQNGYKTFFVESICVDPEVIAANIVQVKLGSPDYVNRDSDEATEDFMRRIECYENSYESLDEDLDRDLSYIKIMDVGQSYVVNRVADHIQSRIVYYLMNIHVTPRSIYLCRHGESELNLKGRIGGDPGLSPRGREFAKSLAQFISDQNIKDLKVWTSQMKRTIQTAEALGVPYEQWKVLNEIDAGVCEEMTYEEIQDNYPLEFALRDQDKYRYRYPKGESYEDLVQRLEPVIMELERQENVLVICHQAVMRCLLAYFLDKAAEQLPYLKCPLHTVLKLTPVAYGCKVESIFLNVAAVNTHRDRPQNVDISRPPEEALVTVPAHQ
PFKFB3, sequence (Q16875 whole entry): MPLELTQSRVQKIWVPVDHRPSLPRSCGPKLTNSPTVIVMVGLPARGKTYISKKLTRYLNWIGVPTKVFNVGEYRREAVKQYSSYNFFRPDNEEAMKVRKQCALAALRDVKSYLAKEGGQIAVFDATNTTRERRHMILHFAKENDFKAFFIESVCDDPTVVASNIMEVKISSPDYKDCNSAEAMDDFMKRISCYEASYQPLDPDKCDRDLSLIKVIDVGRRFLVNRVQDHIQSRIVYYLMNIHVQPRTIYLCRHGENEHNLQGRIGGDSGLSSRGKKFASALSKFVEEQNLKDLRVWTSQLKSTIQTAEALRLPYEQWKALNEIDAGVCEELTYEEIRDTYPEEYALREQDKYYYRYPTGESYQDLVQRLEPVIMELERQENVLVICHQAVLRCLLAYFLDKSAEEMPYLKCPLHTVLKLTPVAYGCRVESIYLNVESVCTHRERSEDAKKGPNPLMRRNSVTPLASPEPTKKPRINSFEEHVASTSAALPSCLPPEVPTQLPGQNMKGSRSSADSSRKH

SMILES | IC50 (PFKFB4) [nM] | IC50 (PFKFB3) [nM]
Cc1c(S(=O)(=O)Nc2cccc(C(=O)O)c2)sc2ccc(C(C)C)cc12 [Example 5, 3-{[(5-Isopropyl-3-methyl-1-benzothien-2-yl)sulfonyl]amino}benzoic acid] | 60 | 30
Cc1c(S(=O)(=O)Nc2cccc(C(=O)O)c2)sc2ccc(Cl)cc12 [Example 38, 3-{[(5-Chloro-3-methyl-1-benzothien-2-yl)sulfonyl]amino}benzoic acid] | 130 | 180
